Measured values published in patent US5712270A, “2-arylamidothiazole derivatives with CNS activity” (American Home Products Corporation, priority 1996, dated 1998).

Legend:
[1] = test system: scopolamine-induced hyperactivity; assay: Reversal of scopolamine-induced hyperactivity in mice (swim tank); assay type: in vivo, Male CFW mice; settings: Mus musculus, ip, 5 min, 0.3 mg/kg scopolamine.HBr, i.p., mean swimming distance, read-out: minimum effective dose (MED), reversal of scopolamine hyperactivity
Method: The compound of Example 1 was also tested in accordance with the procedure of Symons et al, Soc. Neuroscience Abstracts 12:2, 897 (1986) in which Male CFW mice, 25 to 35 grams in weight are given the test compound in suitable vehicle plus 0.3 mg/kg scopoolamine.HBr in suitable vehicle, i.p.(3 groups of 12 animals each) or vehicle alone (1 group of 12 animals ) or vehicle plus scopolamine. HBr (1 group of 12 animals). The rates are placed in a swim tank, individually, containing 10 cm H2 O for a period of 5 minutes and the distance each animal swims is recorded.

[2] = test system: memory in patients with mild to moderate Alzheimer's Disease; settings: cited from earlier work; for memory improvement in patients: mild to moderate Alzheimer's Disease
[3] = test system: serotonin 5-HT1A receptor; settings: standard for anxiolytic activity; cited from earlier work

CN(C)CCOC(=O)c1csc(NC(=O)c2cc(C(C)(C)C)c(O)c(C(C)(C)C)c2)n1 [Example 1, 2-[[3,5,-Bis(1,1-dimethylethl)-4-hydroxybenzoyl]amino]-4-thiazolecarboxylicacid 2-(dimethylamino)ethyl ester]
minimal effective dose [1]: 3 mg/kg

COC(=O)C1=CCCN(C)C1 [arecoline]
memory improvement in patients [2]: memory improvement in patients with mild to moderate Alzheimer's Disease

O=C1CC2(CCCC2)CC(=O)N1CCCCN1CCN(c2ncccn2)CC1 [buspirone]
affinity for the 5-HT1A serotonin receptor subtype (words, buspirone) [3]: potent affinity

Nc1c2c(nc3ccccc13)CCCC2 [tacrine]
side effects ([2]; especially at the higher doses): adverse side effects especially at the higher doses
memory improvement in patients [2]: improvement in memory can be shown in patients with mild to moderate Alzheimer's Disease
